# From patent publication US20230277508A1, “USE OF COMPOUND AS CYP2E1 INHIBITOR” (SHANGHAI LING XI BIOTECHNOLOGY DEVELOPMENT CO., LTD., priority 2020, published 2023)
# Key:
# [1] = tested on: LPS-induced sepsis in mice; assay: LPS-induced mouse sepsis model; assay type: in vivo; details: vs model group
# Experimental: Mice: A mouse sepsis model was constructed through single intraperitoneal injection of LPS (15 mg/kg). 30 min before LPS administration, mice in the model group were administered with NS (0.5 mL/kg, i.g.), mice in the positive control group were administered with celecoxib (5 mg/kg, i.g.), and mice in the CYP2E1 inhibition group were administered with the compound SMI0 (90 mg/kg, i.g.). A body temperature of each mouse was measured and recorded at 6 h, 12 h, and 24 h after LPS administration, and the body temperature was measured […] in total throughout the experimental process. The animals were sacrificed at 24 h, blood samples were collected, and renal and cardiac function-associated indexes were determined (control group, n=8 mice; model group, n=8 mice; celecoxib group, n=8 mice; and SMI0 compound group, n=10 mice).
# [2] = biological target: T1, human liver microsome CYP2E1 (Homo sapiens, UniProt P05181); assay: Determination of IC50 for a CYP2E1 inhibitory effect (CZX probe, mixed liver microsome); assay type: biochemical; details: mixed liver microsome of healthy individuals 0.3 mg/mL, 62.5 μM CZX, 1 mM NADPH, 30 min; read-out: IC50 for 2E1 inhibition
# T1 construct: metabolic activity of a mixed liver microsome CYP2E1 of a healthy individual; from tissue; host or cells: mixed (pooled) human liver microsomes of healthy individuals
# Experimental: CZX was used as a probe substrate to detect an inhibitory effect of an inhibitor to be tested on the metabolic activity of a mixed liver microsome CYP2E1 of a healthy individual (IC50: half inhibition concentration; Ki: inhibition constant; the smaller the IC50 and the smaller the Ki, the higher the inhibition intensity of the inhibitor), thereby determining an inhibitory effect of the inhibitor to be tested on the human liver microsome CYP2E1.
# An incubation system in a total volume of 100 μL was adopted, including a substrate, an inhibitor of different concentrations, a liver microsomal protein, and phosphate-buffered saline (PBS). The incubation system was pre-incubated in a 37° C. water bath for 5 min, reduced coenzyme was added to allow a reaction for 30 min, and then the reaction was terminated in an ice bath. In a specific experiment, a concentration of an inhibitor can be selected as required.
# In this example, the incubation system includes 62.5 μM CZX, 100 mM (pH=7.4) PBS, 0.3 mg/mL liver microsomal protein, and 1 mM NADPH.
# In this example, the reaction is terminated with 1 mL of ethyl acetate. In other preferred examples, the reaction may also be terminated with 1 mL of methyl tert-butyl ether (MTBE), 1 mL of diethyl ether, or 100 μL of methanol.
# [3] = tested on: collagen-induced rheumatoid arthritis in rats; assay: Collagen-induced rat rheumatoid arthritis model; assay type: in vivo, SD rat; details: SMI0 75, 37.5 and 18.75 mg/kg ig once daily, day 21, vs model group
# Experimental: Experimental method: A collagen emulsion was used to construct an SD rat rheumatoid arthritis model. 50 rats successfully modeled were randomly divided into five groups: model group (normal saline (NS), 0.5 mL/kg, i.g.); positive control group (celecoxib, 5 mg/kg, i.g.); SMI0 low-dose group (18.75 mg/kg, i.g.); SMI0 medium-dose group (37.5 mg/kg, i.g.); and SMI0 high-dose group (75 mg/kg, i.g.). The rats each were administered once every day starting from the first day after successful modeling. A thickness of each of the left and right hindfeet and the left and right forefeet of rats was measured every day by a vernier caliper, and a volume of each of the left and right hindfeet of rats was measured by a rat foot swelling measuring instrument (which was measured every 12 h in the first 3 days). A foot swelling rate of each rat was calculated according to a change of a hindfoot volume of the rat relative to a hindfoot volume of the rat before the modeling at each time point, and a difference in foot swelling rate between groups of rats was analyzed. After the successful modeling, blood was collected from the orbit on day 7; rats were sacrificed on day 20, blood was collected, and serum was isolated; and tissues such as ankles, toe joints, spleens, and livers were collected. […]
# [4] = tested on: M2 microglial cells; assay: Inflammatory factor and lipid metabolism gene levels in co-cultivated glial cells (qPCR); assay type: cell-based, mouse; details: SMI0 50 μmol/L vs M2 microglial cell co-cultivation group
# Experimental: (§1) Experimental method: 10 1-2 d newborn C57BL/6 WT mice and 6 CYP2E1^−/− mice were taken, primary microglial cells and astrocytes were collected and inoculated into 6-well plates, and 24 h later, culture supernatants were taken and co-cultivated with glioma cells. Experimental groups: control group; M2 model group; high-concentration, medium-concentration, and low-concentration SMI0 (50 μmol/L, 12.5 μmol/L, and 3.1 μmol/L) groups; and CYP2E1 gene-knockout group. 24 h later, supernatants were discarded; and […] and IL-13 each were added at 20 ng/mL to induce the transformation of microglial cells into the M2 type in the M2 model group and the high-concentration, medium-concentration, and low-concentration SMI0 groups, and different concentrations of SMI0 (50 μmol/L, 12.5 μmol/L, and 3.1 μmol/L) were also added in the intervention groups. The proliferation of glioma cells was determined by a CCK8 method, and an apoptosis proportion was determined by an Annexin V-FITC-PI apoptosis staining kit.
# Experimental method: Astrocytes in the co-cultivation group were collected, RNA was extracted and reverse-transcribed into cDNA, and the changes of inflammatory factor and cholesterol metabolism-associated genes were detected by qPCR.
# [5] = tested on: A549 lung cancer cells / M2 macrophages; assay: Proliferation of A549 cells co-cultivated with M2 macrophages (conditional media, CCK8); assay type: cell-based, human; details: SMI0 50 μmol/L during M2 induction, vs M2 macrophage co-cultivation group, P<0.05
# Experimental: Experimental method: PMA was used at […] to induce the transformation of human monocytic leukemia cells THP-1 into MO macrophages, and then IL-4 and IL-13 were used at 20 ng/mL to induce the transformation of MO macrophages into M2 macrophages. A supernatant was collected to establish a co-cultivation system with an A549 lung cancer cell, thereby simulating a M2-type macrophage microenvironment of lung cancer. In the SMI0 intervention group, SMI0 (50 μmol/L) was added for intervention while interleukin was added for induction. Culture supernatants of the MO macrophages, M2 macrophages, and SMI0 intervention group were collected to prepare conditional media. […] cells/mL, then 100 μL of each of different conditional media was added to each well, and 24 h later, 10 μL of a CCK8 reagent was added to each well; and the cells were further cultivated for 2 h, and an absorbance OD value of each well was determined at 450 nm by a microplate reader. 3 replicates were set for each well, and an average was taken. The proliferation activity was calculated based on the OD value.
# [6] = tested on: GL261 cells / astrocytes; assay: GL261 cells co-cultivated with M2 astrocytes; assay type: cell-based, mouse; details: SMI0 50 μmol/L vs M2 astrocyte co-cultivation group, P<0.05
# Experimental: as §1
# T1 sequence (P05181 whole entry): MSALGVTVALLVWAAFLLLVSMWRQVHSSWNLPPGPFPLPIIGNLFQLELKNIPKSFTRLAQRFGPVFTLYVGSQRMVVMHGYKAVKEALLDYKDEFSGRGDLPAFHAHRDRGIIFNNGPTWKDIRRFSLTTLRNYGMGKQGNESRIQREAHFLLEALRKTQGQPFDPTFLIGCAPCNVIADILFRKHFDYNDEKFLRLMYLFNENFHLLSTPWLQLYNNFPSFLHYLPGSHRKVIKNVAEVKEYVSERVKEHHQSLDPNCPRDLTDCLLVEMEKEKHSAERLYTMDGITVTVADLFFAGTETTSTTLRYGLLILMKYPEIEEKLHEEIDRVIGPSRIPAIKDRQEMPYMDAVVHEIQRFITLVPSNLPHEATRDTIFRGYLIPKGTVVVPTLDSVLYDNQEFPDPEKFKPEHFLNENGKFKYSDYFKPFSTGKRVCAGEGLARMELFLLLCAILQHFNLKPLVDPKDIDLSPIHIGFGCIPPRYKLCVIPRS
smiles,measurement,setting,value
CC(=O)c1scnc1C [SMI0],decrease in body temperature in the LPS-induced sepsis mouse model,"[1]; SMI0 90 mg/kg ig 30 min before LPS 15 mg/kg ip, 6 h, 12 h, 24 h",avoided
same,"levels of renal and cardiac function-associated indexes (urea nitrogen, creatinine, CK, LDH)","[1]; serum at 24 h, SMI0 90 mg/kg ig",significantly reduced
same,IC50,[2],1640 nM
same,foot swelling degrees,[3],significantly reduced
same,level of IL-4,[4],significantly reduced
same,level of IL-10,[4],significantly reduced
same,level of IL-13,[4],significantly reduced
same,level of the lipid metabolism-associated gene PPAR-α,[4],significantly increased
same,proliferation activity of A549 cells,[5],significantly weakened
same,proliferation activity of GL261 cells,[6],significantly weakened
